In paper PMC6437697 (Journal of Medicinal Chemistry, 2019):

Experiments:
Assay in all cases: KINOMEscan
Format in all cases: binding
Settings in all cases: read-out: % control activity remaining
GSK3A = target: T1, GSK3A (Homo sapiens, UniProt P49840)
T1 construct: purchased Eurofins DiscoverX KINOMEscan

PRKD2 = target: T2, PRKD2 (Homo sapiens, UniProt Q9BZL6)
T2 construct: purchased Eurofins DiscoverX KINOMEscan
T2 sequence (Q9BZL6 1-878): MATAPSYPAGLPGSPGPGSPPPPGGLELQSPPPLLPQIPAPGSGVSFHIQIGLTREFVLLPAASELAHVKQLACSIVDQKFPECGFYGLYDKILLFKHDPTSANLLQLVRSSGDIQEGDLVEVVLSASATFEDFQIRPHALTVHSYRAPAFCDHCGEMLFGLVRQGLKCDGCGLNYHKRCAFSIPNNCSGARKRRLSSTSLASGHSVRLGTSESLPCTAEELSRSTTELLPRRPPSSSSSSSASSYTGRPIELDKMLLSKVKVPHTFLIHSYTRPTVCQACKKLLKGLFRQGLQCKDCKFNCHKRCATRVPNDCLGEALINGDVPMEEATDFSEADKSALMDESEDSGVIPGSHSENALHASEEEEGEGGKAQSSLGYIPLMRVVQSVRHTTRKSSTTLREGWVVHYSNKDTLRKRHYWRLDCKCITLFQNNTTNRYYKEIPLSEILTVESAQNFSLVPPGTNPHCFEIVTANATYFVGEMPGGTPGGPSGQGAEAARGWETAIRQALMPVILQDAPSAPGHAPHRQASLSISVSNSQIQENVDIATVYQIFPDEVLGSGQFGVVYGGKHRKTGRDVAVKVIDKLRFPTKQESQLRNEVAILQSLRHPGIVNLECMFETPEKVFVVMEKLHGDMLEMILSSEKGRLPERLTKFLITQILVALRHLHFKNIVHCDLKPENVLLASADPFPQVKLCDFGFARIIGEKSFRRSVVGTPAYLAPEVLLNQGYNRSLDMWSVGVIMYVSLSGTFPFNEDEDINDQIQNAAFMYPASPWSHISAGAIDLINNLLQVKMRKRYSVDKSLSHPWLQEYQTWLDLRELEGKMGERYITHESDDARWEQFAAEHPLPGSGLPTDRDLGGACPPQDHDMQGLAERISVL

STK33 = target: T3, STK33 (Homo sapiens, UniProt Q9BYT3)
T3 construct: purchased Eurofins DiscoverX KINOMEscan
T3 sequence (Q9BYT3 whole entry): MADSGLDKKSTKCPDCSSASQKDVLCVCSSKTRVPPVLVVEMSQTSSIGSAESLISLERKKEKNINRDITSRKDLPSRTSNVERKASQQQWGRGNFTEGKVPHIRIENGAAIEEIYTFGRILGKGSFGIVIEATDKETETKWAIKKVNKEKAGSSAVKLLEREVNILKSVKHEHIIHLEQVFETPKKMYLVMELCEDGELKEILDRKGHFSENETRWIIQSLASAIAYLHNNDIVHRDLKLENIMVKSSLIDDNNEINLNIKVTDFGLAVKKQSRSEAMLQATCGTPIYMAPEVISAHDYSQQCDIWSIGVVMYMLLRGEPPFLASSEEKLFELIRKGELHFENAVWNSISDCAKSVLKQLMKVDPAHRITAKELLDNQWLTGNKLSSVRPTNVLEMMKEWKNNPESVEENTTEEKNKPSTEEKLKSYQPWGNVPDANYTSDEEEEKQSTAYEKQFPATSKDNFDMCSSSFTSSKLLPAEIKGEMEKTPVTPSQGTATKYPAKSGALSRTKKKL

IRAK3 = target: T4, IRAK3 (Homo sapiens, UniProt Q9Y616)
T4 construct: purchased Eurofins DiscoverX KINOMEscan
T4 sequence (Q9Y616 1-596): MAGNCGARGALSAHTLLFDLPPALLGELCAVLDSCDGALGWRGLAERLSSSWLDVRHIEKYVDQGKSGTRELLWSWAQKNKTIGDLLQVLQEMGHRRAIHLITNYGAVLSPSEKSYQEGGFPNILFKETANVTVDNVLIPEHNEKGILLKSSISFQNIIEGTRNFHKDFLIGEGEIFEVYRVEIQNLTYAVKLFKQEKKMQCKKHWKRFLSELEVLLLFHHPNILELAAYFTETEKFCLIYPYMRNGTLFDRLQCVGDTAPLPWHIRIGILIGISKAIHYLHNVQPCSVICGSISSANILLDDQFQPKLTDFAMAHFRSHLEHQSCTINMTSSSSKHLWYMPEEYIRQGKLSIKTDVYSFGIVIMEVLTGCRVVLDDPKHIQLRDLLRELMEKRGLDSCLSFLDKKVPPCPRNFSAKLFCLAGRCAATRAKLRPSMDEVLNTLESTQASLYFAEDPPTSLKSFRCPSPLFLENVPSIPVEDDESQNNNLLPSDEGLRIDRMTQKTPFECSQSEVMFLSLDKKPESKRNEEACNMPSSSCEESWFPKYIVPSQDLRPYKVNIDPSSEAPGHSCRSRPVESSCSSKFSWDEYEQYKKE

[1] = target: T5, RPS6KA5(Kin.Dom.2-C-terminal) (Homo sapiens, UniProt O75582)
T5 construct: RPS6KA5(Kin.Dom.2-C-terminal); purchased Eurofins DiscoverX KINOMEscan
T5 sequence (O75582 426-687 limits assumed): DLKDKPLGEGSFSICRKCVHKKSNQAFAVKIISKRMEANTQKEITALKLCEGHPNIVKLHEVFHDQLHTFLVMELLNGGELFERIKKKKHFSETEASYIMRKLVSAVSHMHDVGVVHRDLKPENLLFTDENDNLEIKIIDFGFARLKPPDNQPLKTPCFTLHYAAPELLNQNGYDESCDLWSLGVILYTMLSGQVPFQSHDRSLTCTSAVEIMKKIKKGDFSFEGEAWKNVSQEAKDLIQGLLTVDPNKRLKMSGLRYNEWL

PIK3CA(E545K) = target: T6, PIK3CA(E545K) (Homo sapiens, UniProt P42336, E545K)
T6 construct: purchased Eurofins DiscoverX KINOMEscan
T6 sequence (P42336 whole entry E545K): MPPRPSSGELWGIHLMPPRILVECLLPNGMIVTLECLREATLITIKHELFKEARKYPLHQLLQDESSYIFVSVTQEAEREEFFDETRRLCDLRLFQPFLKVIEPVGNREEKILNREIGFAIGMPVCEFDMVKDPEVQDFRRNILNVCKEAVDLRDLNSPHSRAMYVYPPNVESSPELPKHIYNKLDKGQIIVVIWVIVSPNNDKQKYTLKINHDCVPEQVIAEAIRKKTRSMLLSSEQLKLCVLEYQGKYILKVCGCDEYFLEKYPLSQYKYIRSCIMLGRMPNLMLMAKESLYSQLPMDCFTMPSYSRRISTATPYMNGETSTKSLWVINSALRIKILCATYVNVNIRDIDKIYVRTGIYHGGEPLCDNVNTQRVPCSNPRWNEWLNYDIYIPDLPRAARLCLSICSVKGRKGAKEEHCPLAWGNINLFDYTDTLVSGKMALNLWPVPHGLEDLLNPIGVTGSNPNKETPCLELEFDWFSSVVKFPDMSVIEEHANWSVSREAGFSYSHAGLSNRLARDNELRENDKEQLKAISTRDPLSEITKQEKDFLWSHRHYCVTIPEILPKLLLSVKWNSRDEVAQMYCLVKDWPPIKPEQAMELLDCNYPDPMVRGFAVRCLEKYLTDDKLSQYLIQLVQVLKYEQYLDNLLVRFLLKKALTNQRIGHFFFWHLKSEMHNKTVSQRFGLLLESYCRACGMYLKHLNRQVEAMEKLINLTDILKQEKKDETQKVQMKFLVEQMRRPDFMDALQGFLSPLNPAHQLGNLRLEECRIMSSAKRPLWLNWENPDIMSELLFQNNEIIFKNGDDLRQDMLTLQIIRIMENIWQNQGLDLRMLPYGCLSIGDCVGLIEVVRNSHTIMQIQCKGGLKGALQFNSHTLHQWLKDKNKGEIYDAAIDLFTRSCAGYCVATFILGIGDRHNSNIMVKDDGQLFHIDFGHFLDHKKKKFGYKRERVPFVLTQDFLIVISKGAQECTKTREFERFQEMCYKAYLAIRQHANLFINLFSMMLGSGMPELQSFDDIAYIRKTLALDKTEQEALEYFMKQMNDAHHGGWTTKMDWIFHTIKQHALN

TGFBR1 = target: T7, TGFBR1 (Homo sapiens, UniProt P36897)
T7 construct: purchased Eurofins DiscoverX KINOMEscan
T7 sequence (P36897 34-503): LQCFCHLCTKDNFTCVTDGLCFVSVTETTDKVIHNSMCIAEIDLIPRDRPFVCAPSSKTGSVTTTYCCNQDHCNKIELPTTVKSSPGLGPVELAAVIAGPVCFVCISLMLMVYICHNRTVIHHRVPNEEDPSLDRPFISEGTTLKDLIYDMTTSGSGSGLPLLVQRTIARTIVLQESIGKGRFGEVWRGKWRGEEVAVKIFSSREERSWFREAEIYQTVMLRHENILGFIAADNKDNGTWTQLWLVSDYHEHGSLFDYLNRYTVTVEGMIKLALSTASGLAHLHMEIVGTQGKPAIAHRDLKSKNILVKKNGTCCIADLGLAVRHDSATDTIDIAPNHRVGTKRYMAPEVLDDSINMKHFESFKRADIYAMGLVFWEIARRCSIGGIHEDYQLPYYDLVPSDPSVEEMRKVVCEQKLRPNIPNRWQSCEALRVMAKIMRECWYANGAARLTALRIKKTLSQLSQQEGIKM

CLK3 = target: T8, CLK3 (Homo sapiens, UniProt P49761)
T8 construct: purchased Eurofins DiscoverX KINOMEscan
T8 sequence (P49761 whole entry): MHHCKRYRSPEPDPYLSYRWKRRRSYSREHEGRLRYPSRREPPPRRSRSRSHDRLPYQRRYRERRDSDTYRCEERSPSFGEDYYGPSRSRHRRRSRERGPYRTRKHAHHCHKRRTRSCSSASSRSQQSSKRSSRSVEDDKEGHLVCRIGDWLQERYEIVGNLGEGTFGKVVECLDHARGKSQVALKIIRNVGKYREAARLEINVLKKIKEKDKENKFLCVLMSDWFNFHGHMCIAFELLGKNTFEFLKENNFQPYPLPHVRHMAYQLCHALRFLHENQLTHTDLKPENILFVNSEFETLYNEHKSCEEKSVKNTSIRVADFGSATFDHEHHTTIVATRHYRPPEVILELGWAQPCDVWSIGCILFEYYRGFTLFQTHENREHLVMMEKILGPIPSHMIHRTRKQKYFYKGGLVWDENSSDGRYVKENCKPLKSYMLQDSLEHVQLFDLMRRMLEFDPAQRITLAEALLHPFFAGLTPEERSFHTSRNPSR

FAK = target: T9, FAK (Homo sapiens, UniProt Q05397)
T9 construct: purchased Eurofins DiscoverX KINOMEscan
T9 sequence (Q05397 whole entry): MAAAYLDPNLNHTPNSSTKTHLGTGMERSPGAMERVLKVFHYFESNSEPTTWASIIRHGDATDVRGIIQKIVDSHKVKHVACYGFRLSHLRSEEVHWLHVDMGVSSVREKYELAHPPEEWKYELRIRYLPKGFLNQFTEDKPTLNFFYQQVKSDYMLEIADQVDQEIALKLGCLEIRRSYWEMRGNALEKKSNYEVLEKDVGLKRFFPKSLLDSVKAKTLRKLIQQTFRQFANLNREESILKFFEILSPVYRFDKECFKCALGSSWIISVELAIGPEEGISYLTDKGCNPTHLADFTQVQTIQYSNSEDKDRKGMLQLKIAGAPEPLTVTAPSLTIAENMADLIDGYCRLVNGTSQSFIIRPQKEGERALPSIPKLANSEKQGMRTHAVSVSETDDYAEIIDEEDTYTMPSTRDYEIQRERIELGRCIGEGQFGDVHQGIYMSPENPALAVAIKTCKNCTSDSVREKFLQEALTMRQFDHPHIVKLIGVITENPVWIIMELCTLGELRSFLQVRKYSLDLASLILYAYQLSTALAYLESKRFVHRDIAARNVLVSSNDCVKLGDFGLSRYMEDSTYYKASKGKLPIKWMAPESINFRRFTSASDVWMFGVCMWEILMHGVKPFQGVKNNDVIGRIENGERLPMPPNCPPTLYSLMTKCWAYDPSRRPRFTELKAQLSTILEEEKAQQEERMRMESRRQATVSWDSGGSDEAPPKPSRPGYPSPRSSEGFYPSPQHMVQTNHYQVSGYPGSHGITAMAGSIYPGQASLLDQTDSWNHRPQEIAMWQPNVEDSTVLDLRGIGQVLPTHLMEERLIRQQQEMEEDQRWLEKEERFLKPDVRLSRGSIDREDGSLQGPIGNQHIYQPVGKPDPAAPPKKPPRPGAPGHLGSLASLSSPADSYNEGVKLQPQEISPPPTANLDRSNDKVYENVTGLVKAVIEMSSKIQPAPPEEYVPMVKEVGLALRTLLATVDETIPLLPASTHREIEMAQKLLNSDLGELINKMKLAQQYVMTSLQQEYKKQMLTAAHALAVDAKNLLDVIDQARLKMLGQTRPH

RAF1 = target: T10, RAF1 (Homo sapiens, UniProt P04049)
T10 construct: purchased Eurofins DiscoverX KINOMEscan
T10 sequence (P04049 whole entry): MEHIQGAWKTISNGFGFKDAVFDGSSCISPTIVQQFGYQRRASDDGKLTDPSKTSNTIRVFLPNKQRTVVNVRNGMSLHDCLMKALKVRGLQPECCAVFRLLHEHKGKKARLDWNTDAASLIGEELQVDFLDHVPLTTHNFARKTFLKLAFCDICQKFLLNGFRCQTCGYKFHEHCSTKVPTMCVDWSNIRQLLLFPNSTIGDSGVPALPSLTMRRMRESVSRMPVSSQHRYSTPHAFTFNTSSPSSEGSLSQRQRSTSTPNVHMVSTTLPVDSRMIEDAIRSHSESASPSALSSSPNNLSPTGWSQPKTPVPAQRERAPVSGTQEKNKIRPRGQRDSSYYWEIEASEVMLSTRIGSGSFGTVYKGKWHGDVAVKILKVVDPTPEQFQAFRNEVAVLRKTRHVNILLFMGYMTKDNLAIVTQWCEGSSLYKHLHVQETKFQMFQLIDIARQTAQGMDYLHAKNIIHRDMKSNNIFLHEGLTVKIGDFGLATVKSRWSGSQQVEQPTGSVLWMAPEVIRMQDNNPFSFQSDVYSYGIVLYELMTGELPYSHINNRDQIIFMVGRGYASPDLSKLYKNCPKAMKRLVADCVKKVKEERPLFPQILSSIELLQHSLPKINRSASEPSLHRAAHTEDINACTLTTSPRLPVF

[2] = target: T11, ABL1(Q252H)-nonphosphorylated (Homo sapiens, UniProt P00519, Q252H)
T11 construct: purchased Eurofins DiscoverX KINOMEscan

T1 sequence (P49840 whole entry): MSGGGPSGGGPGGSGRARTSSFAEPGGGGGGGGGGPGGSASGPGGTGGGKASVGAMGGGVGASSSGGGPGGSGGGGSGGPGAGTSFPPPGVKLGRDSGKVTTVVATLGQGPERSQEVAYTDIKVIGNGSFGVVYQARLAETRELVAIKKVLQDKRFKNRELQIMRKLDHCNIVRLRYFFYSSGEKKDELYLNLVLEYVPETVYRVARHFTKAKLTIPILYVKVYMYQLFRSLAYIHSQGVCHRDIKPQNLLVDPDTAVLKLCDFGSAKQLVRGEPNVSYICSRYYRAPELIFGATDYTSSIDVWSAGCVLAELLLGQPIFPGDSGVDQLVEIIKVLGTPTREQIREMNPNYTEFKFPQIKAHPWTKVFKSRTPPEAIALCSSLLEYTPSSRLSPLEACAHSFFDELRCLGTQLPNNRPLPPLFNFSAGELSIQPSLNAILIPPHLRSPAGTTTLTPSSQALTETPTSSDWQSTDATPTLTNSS

Compound | remaining binding at 1 µM (GSK3A) [%] | remaining binding at 1 µM (PRKD2) [%] | remaining binding at 1 µM (STK33) [%] | remaining binding at 1 µM (IRAK3) [%] | remaining binding at 1 µM [1] [%] | remaining binding at 1 µM (PIK3CA(E545K)) [%] | remaining binding at 1 µM (TGFBR1) [%] | remaining binding at 1 µM (CLK3) [%] | remaining binding at 1 µM (FAK) [%] | remaining binding at 1 µM (RAF1) [%] | remaining binding at 1 µM [2] [%]
Clc1cc(NCC2CC2)c2ncc(-c3ccc4[nH]ncc4c3)n2n1 [compound 2, 6-Chloro-N-(cyclopropylmethyl)-3-(1H-indazol-5-yl)imidazo[1,2-b]pyridazin-8-amine] | 93 | 100 | 47 | 100 | 93 | 75 | 100 | 70 | 91 | 99 | 93
O=C(CN1CCOCC1)N[C@H]1CC[C@H](Nc2cc(Cl)nn3c(-c4ccc5[nH]ncc5c4)cnc23)CC1 [compound 26] | 100 | 100 | 25 | 49 | 80 | 80 | 100 | 52 | 100 | 100 | 48
CN1CCC(CNc2cc(Cl)nn3c(-c4cc5nc(Nc6ccccc6)[nH]c5cc4F)cnc23)CC1 [compound 31, 6-Chloro-3-(6-fluoro-2-(phenylamino)-1H-benzo[d]imidazol-5-yl)-N-((1-methylpiperidin-4-yl)methyl)imidazo[1,2-b]pyridazin-8-amine] | 84 | 93 | 100 | 95 | 99 | 68 | 92 | 100 | 97 | 100 | 64
